The values that follow come from article PMC9692523, “Exposure to (Poly)phenol Metabolites after a Fruit and Vegetable Supplement Intake: A Double-Blind, Cross-Over, Randomized Trial” (Nutrients, 2022).

Series [1] can be described thus: Urinary excretion of phenolic metabolites over 48 h after one 450 mg capsule of the supplement (UHPLC-ESI-MS/MS). The series is classed as in vivo, human. To be noted: for Urinary excretion 0 (h) / Urinary excretion 0–3 (h) / Urinary excretion 3–6 (h) / Urinary excretion 6–10 (h) / Urinary excretion 10–14 (h) / Urinary excretion 14–24 (h) / Urinary excretion 24–32 (h) / Urinary excretion 32–48 (h) / Urinary excretion Total (0–48 h): urine, n = 10, mean ± SEM; for Urinary excretion 0 (h): baseline (day before). How it is done:
(§1) This study was designed as a 3-week randomized, double-blind, cross-over clinical trial. Eligible participants were randomized using simple block randomization of 1:1. Once enrolled, subjects received either one 450 mg capsule of the test supplement or one 450 mg capsule of placebo on the first day of the study (Phase I: D1). After three days of sampling, volunteers started a wash-out period of 1 week and were then enrolled for the second test Phase with ingestion of the opposite supplement (Phase II: D1) (Figure 1). The placebo product was 100% maltodextrin, which was (poly)phenol-free.
Urine samples were collected the day before (baseline) and during the 48 h period following the supplementation (T0-T3, T3-T6, T6-T10, T10-T14, T14-T24, T24-T32 and T32-T48) (Figure 2). Urine volumes at each collection period were registered, and samples were aliquoted and stored at −80 °C until further processing.
Then, urine samples were prepared as previously reported by Brindani and colleagues. Briefly, urine samples were defrosted, vortexed, diluted in 0.1% formic acid in water (1:4, v/v) and centrifuged at 12,000 rpm for 5 min. Finally, urine samples were filtered (0.45 µm nylon filter) prior to UHPLC-ESI-MS/MS analysis.
(§2) Plasma and urine samples were analyzed by a UHPLC DIONEX Ultimate 3000 equipped with a triple quadrupole TSQ Vantage (Thermo Fisher Scientific Inc) fitted with a heated ESI (H-ESI) (Thermo Fisher Scientific Inc) probe, as previously reported. Separations were carried out by means of a Kinetex EVO C18 (100 × 2.1 mm) column, 2.6 µm particle size (Phenomenex, Torrance, CA, USA), installed with a pre-column (Phenomenex). Mobile phase A was 0.2% formic acid in water, and mobile phase B was acetonitrile containing 0.2% formic acid. The gradient started with 5% B, and isocratic conditions were maintained for 0.5 min, reaching 95% B after 6.5 min, followed by 1 min at 95%. The starting gradient was then immediately re-established and maintained for 5 min to re-equilibrate the column. The flow rate was 0.4 mL/min, the injection volume was 5 µL and the column temperature was set at 40 °C.
(§3) The applied MS method consisted of the selective determination of each target precursor ion by the acquisition of characteristic product ion in selective reaction monitoring (SRM) mode (Supplemental Table S2). For all the analyses, the spray voltage was set at 3 kV, the vaporizer temperature at 300 °C and the capillary temperature operated at 270 °C. The sheath gas flow was 50 units, and auxiliary gas pressure was set to 10 units. Ultra-high purity argon gas was used for collision-induced dissociation (CID). The S-lens values were defined for each compound based on infusion parameter optimization. Conversely, for those compounds not available for infusion, the S-lens values were set using the values obtained for the chemically closest available standards. Quantification was performed with calibration curves of standards when available or using the most structurally similar compound. Data processing was performed using Xcalibur software (Thermo Scientific Inc., San Jose, CA, USA).
All data were expressed as mean values ± standard deviation (SD) and mean values ± standard error to the mean (SEM) for metabolites in blood and urine samples. PKSolver add-on program in Microsoft Excel was used to determine pharmacokinetic parameters of blood phenolic metabolites, including time to reach the maximum plasma concentration (Tmax, h), maximum plasma concentration (Cmax, nmol/L), area under the curve (AUC0-24, nmol/L·h), and time of presence of metabolites in circulation (Tpres, h). Tpres was calculated by taking the time interval between the first appearance and the last appearance of the considered metabolite. Coefficient of variation (CV) was evaluated for each metabolite and multivariate principal component analysis (PCA) was applied to explore the inter-individual variation in the urinary metabolites among the participants. […]

The nature of series [2]: Plasma pharmacokinetics of phenolic metabolites after one 450 mg capsule of the supplement (UHPLC-ESI-MS/MS). Format: in vivo, human. The note with it: for Cmax / Tmax / Tpres (time of presence of metabolites in circulation): n = 10, mean ± SEM; for Tpres (time of presence of metabolites in circulation): interval between first and last appearance; for AUC0-24: supplemented volunteers (n = 10), 450 mg capsule, mean ± SEM. How it is done:
as §1
On the day of the test (D1), volunteers visited the Research Center after an overnight fast. Blood was collected at T0 to determine baseline levels of plasma phenolic metabolites. Then, volunteers were invited to take the 450 mg capsule of the supplement or the placebo with 250 mL of still water (Figure 2). Additional blood samples were then collected at 1 h (D1, T1), 2 h (D1, T2), 3 h (D1, T3), 4 h (D1, T4), 5 h (D1, T5), 6 h (D1, T6), 8 h (D1, T8), 10 h (D1, T10) and 24 h (D2, T24) after capsule intake. Blood was taken from the basilica vein and centrifuged at 3000 rpm for 10 min at 4 °C. Plasma was immediately extracted and frozen at −80 °C for further analysis.
Plasma samples were then extracted using a solid phase extraction (SPE) method, as previously reported by Castello and colleagues. Briefly, 350 µL of plasma samples was diluted (1:1) with phosphoric acid 4% (v/v). After plate activation, 600 µL of the diluted plasma samples was loaded on a 96 well µ-SPE HLB (Oasis® HLB µElution Plate 30 µm, Waters, Milford, Massachusetts, MA, USA). Samples were washed with 200 µL of water and 200 µL of 0.2% (v/v) acetic acid. Finally, samples were eluted with 60 µL of methanol for UHPLC-ESI-MS/MS analysis.
as §2, §3
All data were expressed as mean values ± standard deviation (SD) and mean values ± standard error to the mean (SEM) for metabolites in blood and urine samples. […]

Molecules are shown by their SMILES.

On to `O=C1CCC(Cc2cccc(OS(=O)(=O)O)c2)O1` (stereo not shown) [compound 23], for which, in series [1], the “Urinary excretion 0 (h)” value amounted to 41.07 ± 30.35 µg, the “Urinary excretion 0–3 (h)” value came to 4.29 ± 2.19 µg, the “Urinary excretion 3–6 (h)” value is recorded as 52.98 ± 22.54 µg and the “Urinary excretion 6–10 (h)” value came out at 175.24 ± 98.80 µg. In series [1], the “Urinary excretion 10–14 (h)” value turned out to be 76.01 ± 39.48 µg, the “Urinary excretion 14–24 (h)” value amounted to 345.14 ± 198.47 µg, the “Urinary excretion 24–32 (h)” value was 100.92 ± 46.88 µg and the “Urinary excretion 32–48 (h)” value is reported as 34.61 ± 16.03 µg. In addition, in series [1], the “Urinary excretion Total (0–48 h)” value is recorded as 830.26 ± 275.43 µg. Besides, in series [2], the peak concentration (Cmax) is 2.15 ± 0.48 nM, the Tmax came out at 8.22 ± 2.13 h, the “Tpres (time of presence of metabolites in circulation)” value (shortened to “Tpres”) came out at 9.33 ± 2.45 h and the AUC0-24 is 0.01011 ± 0.00389 µM·h.
Consider `COc1ccc(C2CC(=O)c3c(O)cc(OC4OC(C(=O)O)C(O)C(O)C4O)cc3O2)cc1O` (stereo not shown) [compound 28], for which, in series [1], the “Urinary excretion 0 (h)” value was found to be 14.48 ± 5.94 µg, the “Urinary excretion 0–3 (h)” value worked out at 4.02 ± 2.90 µg, the “Urinary excretion 3–6 (h)” value worked out at 20.07 ± 4.27 µg and the “Urinary excretion 6–10 (h)” value is on record as 28.56 ± 5.46 µg. Further, in series [1], the “Urinary excretion 10–14 (h)” value is recorded as 9.57 ± 2.19 µg, the “Urinary excretion 14–24 (h)” value is listed as 30.72 ± 8.04 µg, the “Urinary excretion 24–32 (h)” value is reported as 19.07 ± 5.57 µg and the “Urinary excretion 32–48 (h)” value is 22.33 ± 5.83 µg. Further, in series [1], the “Urinary excretion Total (0–48 h)” value worked out at 148.81 ± 14.88 µg. In series [2], the Cmax amounted to 19.9 ± 2.31 nM, the time of peak concentration (Tmax) was 7.11 ± 0.90 h, the “Tpres” value was 17.83 ± 1.54 h and the AUC0-24 is 0.15205 ± 0.02784 µM·h.
Consider `O=C(O)C1OC(Oc2cc(CCO)ccc2O)C(O)C(O)C1O` (stereo not shown) [compound 33], for which the “Time of maximum (peak) urinary excretion” value in series [1] (collection interval post-consumption) is 3 to 6 h. Moreover, in series [1], the “Urinary excretion 0–3 (h)” value is recorded as 53.75 ± 15.51 µg, the “Urinary excretion 3–6 (h)” value was 69.04 ± 13.20 µg, the “Urinary excretion 6–10 (h)” value is given as 38.02 ± 8.17 µg and the “Urinary excretion 10–14 (h)” value came to 10.90 ± 3.90 µg. Also, in series [1], the “Urinary excretion 14–24 (h)” value is recorded as 10.23 ± 3.71 µg, the “Urinary excretion 24–32 (h)” value is given as 0.75 ± 0.75 µg and the “Urinary excretion Total (0–48 h)” value is 182.69 ± 19.99 µg. Also, in series [2], the peak concentration (Cmax) is 24.9 ± 5.63 nM, the time of peak concentration (Tmax) is listed as 1.45 ± 0.32 h, the “Tpres” value is reported as 8.45 ± 2.19 h and the AUC0-24 was 0.05092 ± 0.00585 µM·h.
With `O=C(O)CCc1cccc(O)c1.O=C(O)CCc1cccc(O)c1` [compound 40], in series [1], the “Urinary excretion 0 (h)” value is 96.20 ± 96.20 µg, the “Urinary excretion 0–3 (h)” value is reported as 85.67 ± 85.67 µg, the “Urinary excretion 10–14 (h)” value amounted to 287.94 ± 287.94 µg and the “Urinary excretion 14–24 (h)” value was determined as 262.06 ± 138.26 µg. In series [1], the “Urinary excretion 32–48 (h)” value amounted to 676.70 ± 383.40 µg and the “Urinary excretion Total (0–48 h)” value came to 1408.57 ± 544.97 µg. In addition, in series [2], the highest concentration (Cmax) stood at 443 ± 99.3 nM, the time of peak concentration (Tmax) turned out to be 7.13 ± 0.77 h, the “Tpres” value is reported as 7.50 ± 2.38 h and the AUC0-24 worked out at 1.55429 ± 0.64433 µM·h.
In the case of `O=C(O)CCc1ccc(O)c(OS(=O)(=O)O)c1` [compound 41], in series [1], the “Urinary excretion 0 (h)” value was determined as 27.49 ± 27.49 µg, the “Urinary excretion 0–3 (h)” value came to 101.08 ± 52.47 µg, the “Urinary excretion 3–6 (h)” value was found to be 103.59 ± 54.34 µg and the “Urinary excretion 6–10 (h)” value was determined as 41.08 ± 16.51 µg. Moreover, in series [1], the “Urinary excretion 10–14 (h)” value was found to be 56.67 ± 24.78 µg, the “Urinary excretion 14–24 (h)” value is 389.70 ± 95.00 µg, the “Urinary excretion 24–32 (h)” value was found to be 208.69 ± 73.47 µg and the “Urinary excretion 32–48 (h)” value came out at 289.45 ± 118.16 µg. Also, in series [1], the “Urinary excretion Total (0–48 h)” value came to 1217.76 ± 256.95 µg. In series [2], the Cmax was determined as 18.2 ± 11.3 nM, the time to peak (Tmax) turned out to be 4.56 ± 1.13 h, the “Tpres” value is 9.06 ± 2.56 h and the AUC0-24 is 0.02741 ± 0.01121 µM·h.

For orientation: Cmax means the peak of the concentration-time curve. In general, Tmax refers to the time from dosing to the highest level.
